# Test results taken from US20170014391A1, “SGK1 INHIBITORS FOR TREATMENT OF PROSTATE CANCER” (Sloan-Kettering Institute for Cancer Research, priority 2013, published 2017).
# Where “and” joins values, the source holds several entries; their conditions need not be identical. Equal values may be shown once.
# Legend:
# [1] = test system: AR target gene expression; assay: AR target gene expression with GR antagonists; type: cell-based
# [2] = biological target: GR (Homo sapiens, UniProt P04150); details: patients with Cushing syndrome; cited from earlier work
# GR (Homo sapiens, UniProt P04150), sequence (P04150 whole entry): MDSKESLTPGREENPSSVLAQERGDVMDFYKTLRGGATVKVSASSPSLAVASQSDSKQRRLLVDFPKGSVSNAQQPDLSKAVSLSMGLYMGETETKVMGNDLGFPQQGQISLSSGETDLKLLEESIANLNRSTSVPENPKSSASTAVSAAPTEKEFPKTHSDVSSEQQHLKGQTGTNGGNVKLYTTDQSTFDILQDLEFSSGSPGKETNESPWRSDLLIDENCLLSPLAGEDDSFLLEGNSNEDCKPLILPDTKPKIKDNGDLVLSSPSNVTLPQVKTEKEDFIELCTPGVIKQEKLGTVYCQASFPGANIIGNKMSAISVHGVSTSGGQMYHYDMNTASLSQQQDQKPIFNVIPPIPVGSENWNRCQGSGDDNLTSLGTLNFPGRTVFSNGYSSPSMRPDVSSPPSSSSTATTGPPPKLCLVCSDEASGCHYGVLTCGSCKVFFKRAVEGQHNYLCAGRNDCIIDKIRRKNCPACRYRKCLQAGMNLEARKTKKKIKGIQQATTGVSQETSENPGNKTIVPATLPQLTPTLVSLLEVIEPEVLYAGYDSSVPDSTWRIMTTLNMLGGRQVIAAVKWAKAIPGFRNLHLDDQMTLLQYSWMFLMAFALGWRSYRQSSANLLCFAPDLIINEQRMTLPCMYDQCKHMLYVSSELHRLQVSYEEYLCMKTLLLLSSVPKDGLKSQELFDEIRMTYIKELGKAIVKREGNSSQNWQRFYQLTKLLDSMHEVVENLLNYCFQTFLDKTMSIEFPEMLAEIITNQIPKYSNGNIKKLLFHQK
# [3] = test system: LNCaP/AR xenograft tumors; assay: LNCaP/AR xenografts in castrate mice, long-term antiandrogen treatment (pilot cohort); type: in vivo; details: for Mean Tumor Volume (mm^3): Day 0: 10 mg/kg oral gavage 5 days a week, start of treatment; for % Regression: D28 Mean: 10 mg/kg, day 28; for Mean Tumor Volume (mm^3) at harvest: harvest after progression on continued treatment; for Day of Harvest: Mean: tumors harvested after progression
# [4] = test system: GR mRNA (NR3C1); assay: GR mRNA (RT-qPCR) in LNCaP/AR xenograft tumors, validation cohort; type: in vivo, mice; design: key: expression relative to beta-actin or GAPDH; details: individual tumor with acquired resistance to the drug (10 mg/kg), relative expression
# Description: (§1) RNA was extracted from cell lines using the RNeasy kit (Qiagen). Frozen tumors were lysed with lysing matrix A using the Fast-Prep24 tissue homogenizer system (MP BIOMEDICALS) in Trizol (Invitrogen) followed by clean up with RNeasy (Qiagen). cDNA was generated with the High Capacity cDNA Reverse Transcription Kit (Applied Biosystems.) Data was quantified relative to either beta Actin or GAPDH expression and relative expression was generally plotted. Primers for ACTB (PPH00073E), NDRG1(PPH02202B), NR3C1(PPH02652A), and SGK1(PPH00387E), STK39 (PPH14239B), GRB10 (PPH05866B), TIPARP (PPH07883A), PMEPA1 (PPH01013B) were purchased from SA Biosciences. Other qPCR primers are as follows: […]
# [5] = test system: LNCaP/AR xenograft tumors; details: previously shown (Clegg et al., 2012; Tran et al., 2009); cited from earlier work
# [6] = test system: AR target genes in LREX′ cell line; assay: Expression of AR target genes in LREX′ cell line (RT-qPCR); type: cell-based
# Description: A. Normalized expression array signal (Illumina HT-12) of a suite of 74 AR target genes in control (n=10), 4 day (n=8), and LREX′ (n=8, right) xenograft tumors. Genes are ranked by degree of restoration of expression in resistant tissue ((Res-4 day)/(Control-4 day)). All resistant tissues were continued on anti-androgen treatment through time of harvest. B. Fractional restoration values of each of the 74 AR targets in LREX′ xenografts (n=8) or resistant tissues from the validation cohort (n=12, see also FIG. S3). C. GR mRNA in resistant tissues used in B. D. Expression of AR target genes in the LREX′ cell line in steroid depleted media after 8 hours of treatment with the indicated agonists, in vitro. Enzalutamide=10 micromolar, V=Vehicle.+/−s.e.m. See also FIGS. S3, S4.
# A. LnCaP/AR cells engineered to express GFP or GR were treated with indicated drugs. […] D. Control or AR siRNA knock-down in LREX′ followed by treatment with indicated drugs. […] Cells were treated in charcoal stripped media. Expression determined by RT-qPCR+/−s.e.m.
# LREX′ cells were derived from a single enzalutamide resistant tumor that was harvested, disaggregated with collagenase treatment, and then maintained in RPMI supplemented with 20% FBS and 1 μM enzalutamide. Cells were initially grown on collagen-coated flasks until confluent and then were maintained on standard tissue culture dishes. CS1 were similarly derived from vehicle treated tumors and maintained in standard LNCaP/AR media. LNCaP/AR and LREX′ cells were cultured in phenol-red free RPMI with 10% charcoal-stripped FBS prior to drug treatments.
# as §1
# [7] = test system: GR mRNA; assay: GR mRNA in LREX′ cell line in vitro; type: cell-based
# Description: (§2) A. GR mRNA in LREX′ xenografts. […] . […] C. […] AUC=area under curve. […] . […] See also FIG. S7.
# as §1
# [8] = test system: GR mRNA; assay: GR mRNA in LREX′ xenografts after enzalutamide discontinuation; type: in vivo, mice; details: 8 days after discontinuation, after 7 weeks of 10 mg/kg
# Description: as §2, §1
# [9] = test system: GR; assay: Bone marrow evaluation: GR IHC of tumor cells in patients receiving enzalutamide; type: in vivo; details: bone metastases, enzalutamide 160 mg daily
# Procedure: Patients were treated with enzalutamide 160 mg daily. Bone marrow biopsy and aspirate (˜5 mL) were performed before treatment and at week 8. The bone marrow specimens were obtained by transiliac biopsy, and samples were processed according to standard MD Anderson Cancer Center decalcification and fixation procedures. After pathologic evaluation, samples were stored in the MD Anderson Cancer Center Prostate Cancer Tissue Bank. Imaging studies were performed at the time of suspected prostate cancer progression or at the treating physician's discretion, but generally not prior to 12 weeks post-treatment initiation. […] Retrospective analysis for GR was performed by IHC on […] formalin-fixed, paraffin-embedded bone marrow biopsy sections with anti-GR at a dilution of 1:200 (BD Transduction Laboratories #611227). A Dako autostainer and standard 3,3-diaminobenzidine were used. GR expression was assessed in a blinded fashion by two pathologists scoring at least 100 tumor cells per specimen. Plotted are either data from all specimens or only from patients with usable material at baseline and 8 weeks.
# [10] = test system: GR protein in CS1 or LnCaP/AR; assay: Intracellular GR flow cytometric analysis of CS1 or LnCaP/AR cells; details: enzalutamide 1 micromolar, 4 week experiment
# Procedure: (§3) E. Intracellular GR flow cytometric analysis of indicated cells at indicated times points.
# (§4) Cells were re-suspended in Fixation/Permeabilization working solution (eBioscience; San Diego, Calif., USA) at a concentration of 1-2×10^6 cells/ml for 30 minutes at room temperature. The cells were subsequently stained with primary antibodies, Rabbit (DA1E) mAb IgG XP® Isotype Control, androgen receptor (D6F11) XP® Rabbit mAb, or glucocorticoid receptor (D6H2L) XP® Rabbit mAb (Cell Signaling Technology; Danvers, Mass., USA) for 20 minutes at room temperature. The cells were washed twice with Flow Cytometry Staining Buffer (eBioscience; San Diego, Calif., USA), and then stained with secondary antibody, Allophycocyanin-AffiniPure F(ab′)2 Fragment Donkey Anti-Rabbit IgG (Jackson ImmunoResearch Laboratories, Inc.; Westgrove, Pa., USA) for 20 minutes at room temperature. Following two more washes, the cells were re-suspended in Flow Cytometry Staining Buffer and analyzed by flow cytometry on a LSRII (BD Biosciences; San Jose, Calif., USA) using FlowJo software (Tree Star, Ashland, Oreg., USA). For GR staining, cells were maintained in their standard media and treated with dexamethasone for 20 minutes prior to harvest to fully expose antigen.
# [11] = test system: GR protein in LREX′ cells; assay: Intracellular GR flow cytometric analysis of LREX′ cells
# Procedure: as §3, §4
# [12] = test system: LREX′ cells; assay: Expression profiling (global transcriptome) of LREX′ cells; type: cell-based; details: enzalutamide 10 micromolar
# [13] = test system: LnCaP/AR and sub-lines; assay: In vitro growth by cell counting (Vi-cell); details: 1 micromolar, FIG. S7B
# Procedure: B. Relative cell numbers determined by cell counting (Vi-cell) of indicated cells with vehicle or 1 micro-molar enzalutamide treatment.
# LnCaP/AR and sub-lines: Equivalent numbers of cells were plated and then harvested and counted in triplicate at indicated time points using the Beckman Coulter Vi-Cell XR. Cells were passaged at each time point and identical numbers of cells re-plated. Fold increase in cell numbers were determined for each time interval.
# [14] = test system: PSA; assay: Maximal PSA decline in patients receiving enzalutamide; type: in vivo; details: enzalutamide 160 mg daily
# [15] = Tran et al., 2009; cited from earlier work
# [16] = test system: VCaP cells; details: Tran et al., 2009; cited from earlier work
# [17] = test system: DU145 and PC3 cells; details: AR-negative cells; cited from earlier work
# [18] = test system: VCaP cells; assay: VCaP in vitro growth assay (CellTiter-Glo); type: cell-based; details: Enz 10 micromolar, standard culture conditions
# Procedure: Enz=10 micromolar, Dex=100 nM, CMP 15=1 micromolar. A. Western blot analysis of prostate cancer cell lines. B, C and D. Cell viability assessed by CellTiter-Glo (Promega) assay and normalized to day 1 value after indicated treatments+/−s.e.m. E. Confirmation of GR knock-down by western blot after infection with GR targeting shRNA. F. Apoptosis as assessed by cPARP western blot after 3 days of indicated treatment. G. A suite of AR targets relevant to VCaP was defined (see methods) and normalized expression of each gene after 24 hours of indicated drug treatments is depicted by heat map and ranked by degree of induction with Dex. H. Expression of the top two genes from […]. (KLK2 and FKBP5) after 24 hours of indicated treatments+/−s.e.m. See also FIG. S6.
# Viability is plotted normalized to day 1.
# [19] = in vivo; cited from earlier work
# [20] = steroid depleted media, 8 hours
# [21] = enzalutamide 10 micromolar, 8 hours
# [22] = LREX′^off, enzalutamide 1 micromolar
smiles,measurement,setting,value
CC#C[C@]1(O)CC[C@H]2[C@@H]3CCC4=CC(=O)CCC4=C3[C@@H](c3ccc(N(C)C)cc3)C[C@@]21C [mefipristone],effect on AR target gene expression,[1],activate
same,risk-benefit of GR inhibition in humans,[2],acceptable risk-benefit profile
CNC(=O)c1ccc(N2C(=S)N(c3cnc(C#N)c(C(F)(F)F)c3)C(=O)C23CCC3)cc1F [ARN-509],Mean Tumor Volume (mm^3): Day 0,[3],341 mm^3
same,% Regression: D28 Mean,[3],71%
same,Mean Tumor Volume (mm^3) at harvest,[3],337 mm^3
same,Day of Harvest: Mean,[3],D145 days
same,GR mRNA Expression,[4]; listed as ARN,47.4 and 41.6 and 30.2 and 14.5 and 11.4 and 1.4 and 0.8 and 172.1 and 103.8
same,LNCaP/AR xenograft tumors during the first 28 days of treatment,[5],regress
CNC(=O)c1ccc(N2C(=S)N(c3ccc(C#N)c(C(F)(F)F)c3)C(=O)C23CCC3)cc1F [RD162],Mean Tumor Volume (mm^3): Day 0,[3],379 mm^3
same,% Regression: D28 Mean,[3],80%
same,Mean Tumor Volume (mm^3) at harvest,[3],554 mm^3
same,Day of Harvest: Mean,[3],D173 days
same,LNCaP/AR xenograft tumors during the first 28 days of treatment,[5],regress
CC#C[C@]1(O)CCC2C3CCC4=CC(=O)CCC4=C3[C@@H](c3ccc4c(c3)OCO4)C[C@@]21C (stereo partly drawn) [ORG34517],effect on AR target gene expression,[1],activate
"C[C@]12CCC(=O)C[C@@H]1CC[C@@H]1[C@@H]2CC[C@]2(C)[C@@H](O)CC[C@@H]12 [DHT, dihydrotestosterone]",expression of 7 AR targets and PSA (8 genes),[6]; [20],regulated
same,expression of KLK3 (PSA),[6]; [20],comparably induced
same,GR mRNA levels after DHT exposure,"[7]; charcoal stripped media, 8 hours",reduced
CNC(=O)c1ccc(N2C(=S)N(c3ccc(C#N)c(C(F)(F)F)c3)C(=O)C2(C)C)cc1F [enzalutamide],drop of GR mRNA levels after treatment discontinuation,[8],~5 fold
same,"mean percentage of GR positive cells at 8 weeks, poor responders",[9],29%
same,"percentage of GR-positive cells at 8 weeks, good responders",[9],10%
same,median GR expression intensity,[10]; cells not previously exposed,no change
same,area under the GR staining population,[10],did increase
same,effect on Dex activity at AR target genes,[6]; enzalutamide 10 micromolar,did not notably affect
same,effect on DHT regulation of the 8 genes,[6]; [21],blocked
same,half-life of exponential decay in median GR protein signal upon withdrawal,[11]; LREX′ after enzalutamide withdrawal,182 h
same,GR expression after continued drug exposure for 7 weeks,[11]; [22],clear shift in GR expression in essentially all cells
same,doubling time of GR expression on re-exposure,[11]; [22],6.8 days
same,time to plateau in loss of GR expression upon withdrawal,[11]; followed to 17 weeks,≤ 7 weeks
same,GR mRNA levels after withdrawal in vitro,"[7]; LREX′ passaged without enzalutamide, 23 days",dropped as early as 1 day after discontinuation and continued to decline throughout the 23 days
same,effect of co-treatment on DHT reduction of GR mRNA,[7]; [21],reversed
same,effect on Dex-induced gene expression (heatmap),[12],not impacted
same,antiproliferative effect in vitro,[13],weak antiproliferative effect
same,GR mRNA Expression,[4]; listed as Enz,29.8 and 24.2 and 24.0 and 14.3 and 0.5 and 127.7 and 53.0
same,good responders with maximal PSA decline greater than 50%,[14]; benefit for greater than 6 months,11 of 13
same,poor responders with maximal PSA decline greater than 50%,[14]; discontinued earlier than 6 months,1 of 14
same,half-life in mice,[15],prolonged half-life
same,sensitivity of VCaP cells in vitro,[16],enzalutamide-sensitive
same,sensitivity of DU145 and PC3 cells,[17],resistant
same,LNCaP/AR xenograft tumors during the first 28 days of treatment,[5],regress
same,growth of VCaP cells,[18],inhibited growth
CC(C)C(=O)Nc1ccc([N+](=O)[O-])c(C(F)(F)F)c1 [flutamide],Distribution: Protein-binding,[19],Distribution: Protein-binding: 90%
same,Excretion,[19],"Urine, faeces (small amounts)"
